Experimental data taken from patent publication US8212038B2, “Methods and compositions for controlling ectoparasites” (HatchTech Pty Ltd., priority 2003, dated 2012).

Legend:
lice eggs = assay: Time course in vitro lice egg hatching assay; type: in vivo, Pediculus humanus humanus; conditions: for effect on egg hatching (in words): results not shown
[1] = system: Plutella xylostella eggs (Waite strain); assay: Egg hatch of Plutella xylostella after dipping in inhibitor; conditions: for % Inhibition of egg hatch relative to controls / Number hatched / Number unhatched: Example 13
Protocol: The egg masses were then placed in a humid box at 25 degrees until egg hatch. Control eggs were exposed to absolute methanol as described above. At day 6 post laying the eggs were assessed from the different treatments and the percentage of egg hatch determined relative to the control as shown in Table 9.
Batches of Plutella eggs that were laid on either fine cloth or parafilm were dipped in a specific inhibitor solution for between 2-10 seconds, the excess solution was drained by blotting with dry tissue paper. The egg masses were then placed in a humid box at 25 degrees until egg hatch. Control eggs were exposed to absolute methanol as described above or not treated.
The egg masses were then placed in a humid box at 25 degrees until egg hatch. Control eggs were exposed to absolute ethanol as described above. On day 6 post laying the eggs were assessed from the different treatments and the percentage of egg hatch determined relative to the control.

[2] = system: Helicoverpa armigera eggs (Tatura×Toowoomba strains); assay: Egg hatch of Helicoverpa armigera after exposure to inhibitor; conditions: for % Inhibition of egg hatch relative to the control / Number hatched / Number unhatched: Example 15, day 6 post laying
Protocol: Several hundred Helicoverpa armigera eggs (Tatura×Toowoomba strains) were collected, that had been laid on fine mesh cloth over a 24 hour period.
Batches of Helicoverpa eggs were exposed to a specific inhibitor solution for between 2-10 seconds the excess solution drained by blotting with dry tissue paper. The egg masses were then placed in a humid box at 25 degrees until egg hatch. Control eggs were exposed to absolute methanol as described above.

**Q.** Which results are given for `c1ccc(-c2ccccn2)nc1` [2,29-dipyridyl]?
**A.** inhibition of lice egg hatching (in words) (lice eggs; in vivo): completely inhibited; Ph (number of eggs partly hatched) (lice eggs; per replicate, […], concentration not given): 0

**Q.** `c1ccc(-c2ccc3ccccc3n2)nc1` [2-(2-pyridinyl)quinoline] was tested. Which “inhibition of egg hatching in Plutella xylostella (in words)” value ([1]; 10 mM) did it give?
**A.** able to inhibit egg hatching

**Q.** How did the “inhibition of egg hatching of Helicoverpa armigera (in words)” value ([2]; 1 mM) turn out when `Cc1ccnc(-c2cc(C)ccn2)c1` [4,4′-dimethyl-2,2′-dipyridyl] was run?
**A.** significant inhibition of egg hatching

**Q.** And the “inhibition of egg hatching of Helicoverpa armigera (in words)” value ([2]; 10 mM)?
**A.** significant inhibition of egg hatching

**Q.** What about the “% Inhibition of egg hatch relative to the control” value ([2]; 1 mM) of the same molecule?
**A.** 66%

**Q.** What about the Number hatched ([2]; 1 mM) of the same molecule?
**A.** 23

**Q.** And the Number unhatched ([2]; 1 mM)?
**A.** 29

**Q.** And the “% Inhibition of egg hatch relative to the control” value ([2]; 10 mM)?
**A.** 84%

**Q.** And the Number hatched ([2]; 10 mM)?
**A.** 8

**Q.** And the Number unhatched ([2]; 10 mM)?
**A.** 43

**Q.** What about the “inhibition of egg hatching in Plutella xylostella (in words)” value ([1]; 10 and 1 mM) of the same molecule?
**A.** significantly inhibit egg hatching

**Q.** And the “% Inhibition of egg hatch relative to controls” value ([1]; eggs laid on cloth, 1 mM)?
**A.** 100%

**Q.** What about the Number hatched ([1]; eggs laid on cloth, 1 mM) of the same molecule?
**A.** 0

**Q.** And the Number unhatched ([1]; eggs laid on cloth, 1 mM)?
**A.** 30

**Q.** What about the “% Inhibition of egg hatch relative to controls” value ([1]; eggs laid on cloth, 10 mM) of the same molecule?
**A.** 100%

**Q.** And the Number hatched ([1]; eggs laid on cloth, 10 mM)?
**A.** 0

**Q.** And the Number unhatched ([1]; eggs laid on cloth, 10 mM)?
**A.** 36

**Q.** What about the “% Inhibition of egg hatch relative to controls” value ([1]; eggs laid on parafilm, 1 mM) of the same molecule?
**A.** 91%

**Q.** What about the Number hatched ([1]; eggs laid on parafilm, 1 mM) of the same molecule?
**A.** 10

**Q.** What about the “% Inhibition of egg hatch relative to controls” value ([1]; eggs laid on parafilm, 10 mM) of the same molecule?
**A.** 100%

**Q.** What about the Number hatched ([1]; eggs laid on parafilm, 10 mM) of the same molecule?
**A.** 0

**Q.** Which “effect on egg hatching (in words)” value (lice eggs; 100 mM) does the source give for `O=C(O)CN(CCN(CC(=O)O)CC(=O)O)CC(=O)O` [EDTA, reference compound] here?
**A.** did not appear to have an effect on egg hatching

**Q.** Which “effect on egg hatching (in words)” value (lice eggs; 10 mM) does the source give for `O=C(O)CN(CCOCCOCCN(CC(=O)O)CC(=O)O)CC(=O)O` [EGTA, reference compound] here?
**A.** did not appear to have an effect on egg hatching

**Q.** `CC(C)C[C@H](CC(=O)O)C(=O)N[C@@H](Cc1c[nH]c2ccccc12)C(=O)N[C@@H](C)c1ccccc1` [GM 1489, reference compound] was tested. Which “% Inhibition of lice egg hatching (maximum over the time-course)” value (lice eggs; concentration not given) did it give?
**A.** 0%
